Test results taken from a melting point compilation (Tetko et al.).

Compound | melting point [°C]
COC(=O)c1c(C)c2c(c(C(=O)OC)c1C)CC2=O | 117
CCCCCCCC(=O)OCC(COC(=O)CCCCCCC)OC(=O)CCCCCCC | 10
Cc1cccc(NC(=O)C(F)(F)C(F)(F)C(F)(F)C(F)(F)C(F)(F)C(F)(F)C(F)(F)C(F)(F)F)c1 | 97
CCCCCCCCOC(=O)CCCCCC | -22.5
S=C=Nc1c(Br)cc(Br)cc1Br | 106 to 110
O=C1c2nonc2CCC1Br (stereo unspecified) | 65 to 68
CC(=Nn1c(S)nnc1C(F)(F)F)c1ccc(C)cc1 | 201
NC(C(=O)O)C1=CCC=CC1 (stereo unspecified) | 260
NCCCCCCNCCCCCCN | 33
O=c1n(Cl)c(=O)n(Cl)c(=O)n1Cl | 249
CN(C)C(=O)Nc1ccc(-n2nc(C(C)(C)C)oc2=O)c(Cl)c1 | 193
COc1cc2c(cc1O)CN(C1CC=CC(=O)C1)CC2 (stereo unspecified) | 254 to 257
O=C(O)C=Cc1ccc(Cl)c([N+](=O)[O-])c1 | 187
N#Cc1cc(Br)ccc1O | 160 to 162
CC(=O)OC1CCCCC1C(C)(C)C (stereo unspecified) | 35
COC(=O)c1scc(C)c1Cl | 76 to 78
Cc1ccc(O)c(Cl)c1C | 27
Cc1cc(N=O)ccc1N=O | 137
C=CCOOC(C)(C)c1ccccc1 | 60
COc1cc(Br)c(CO)cc1OC | 95 to 100
COC(=O)[C@@H](CC(=O)O)C1CCCCC1 | 47.9
O=C(O)CCc1cc2c(cc1[N+](=O)[O-])CCC(=O)N2 | 258
C[C@]12CC(=O)C[C@@]1(C)CC(=O)C2 | 228 to 230
O=C1CCC(=O)N1I | 204

Compound | melting point [°C]
CN1CC(C(=O)O)CC1=O (stereo unspecified) | 152
CC(C)=CC(=O)C=C(C)C | 28
NC(=O)C(Br)CBr (stereo unspecified) | 133
FC(F)(F)C(F)(F)C(F)(F)C(F)(F)N(C(F)(F)C(F)(F)C(F)(F)C(F)(F)F)C(F)(F)C(F)(F)C(F)(F)C(F)(F)F | -50
Cc1ccc(S(N)(=O)=O)cc1Cl | 137
CCCCCCCCCCCCCCCCCCCCCO | 68 to 71
C=CCNC(=O)C(O)C(O)C(=O)NCC=C (stereo unspecified) | 182 to 186
CCOC(=O)c1c(-c2ccco2)csc1N | 86 to 89
CCSC(=O)N(CC)C1CCCCC1 | 11.5
COP(=S)(OC)SCC(=O)N(C)C=O | 25.5
O=C(O)/C=C/c1cc2c(cc1CC(=O)O)NC(=O)CC2 | 234
COc1cc(C(c2ccc(C)s2)c2ccc(C)s2)c([N+](=O)[O-])cc1OC | 120
CC12CCC3C(C1CCC2=O)C1(CC2CC(=O)CCC23C)OCCO1 (stereo unspecified) | 205 to 208
COc1ccc2c3c1OC1C(O)CC=C4C(C2)N(C)CCC431 (stereo unspecified) | 128
Cc1c(NC(=O)C(F)(F)C(F)(F)C(F)(F)C(F)(F)C(F)(F)C(F)(F)C(F)(F)C(F)(F)F)c(=O)n(-c2ccccc2)n1C | 177
C=CC(=O)OCCN(CC)CC | -60
Cc1c(C(=O)O)sc2sc(C(=O)O)c(C)c12 | 360
C=C1C(=O)C23C(OC)CC4C5(C)CCCC4(COC5=O)C2C(OC(C)=O)CC1C3O (stereo unspecified) | 126 to 127
O=C1Nc2ccccc2C1=Nn1c(S)nnc1C(F)(F)F | 300
CC12C=CC(=O)C=C1CCC1C2CCC2(C)C1CCC2(C)O (stereo unspecified) | 164
CCCCCCCCCCCCC(C)O (stereo unspecified) | 34
COC(=O)C1(Br)CCC(Br)(C(=O)OC)CC1 (stereo unspecified) | 148 to 150
CC(C)C(C)C=CC(C)C1CCC2C3=CC=C4CC(O)CCC4(C)C3=CCC21C (stereo unspecified) | 146
CC(=O)NC(CCC(=O)O)C(=O)O (stereo unspecified) | 199

Compound | melting point [°C]
O=C(Nc1ccccc1)Nc1ccnc(Cl)c1 | 167
CCOC(=O)C=Cc1cccc(C=CC(=O)OCC)c1 | 53.5
CCOC(=O)c1[nH]c(C)c(C(C)=O)c1C | 146 to 147
Oc1ncc(C(F)(F)F)cc1Cl | 157 to 159
COCCCn1c(-c2ccc(C(C)(C)C)cc2)n[nH]c1=S | 116 to 118
Cc1cc(C(C)(C)C)cc(C)c1I | 56
Cc1cc(O)c(Cc2c(O)cc(C)oc2=O)c(=O)o1 | 248 to 250
Cc1nnsc1-c1nnc(S)n1C1CC1 | 212 to 213
COc1cc(C=Cc2cc(/C=C/c3ccc(O)c(OC)c3)c([N+](=O)[O-])cc2[N+](=O)[O-])ccc1O | 251
O=Cc1ccc(I)o1 | 127
Cc1ncc(C#N)c(N)n1 | 249 to 252
NC(=O)CC(N)C(=O)O (stereo unspecified) | 234
CC(C)(CO)[N+](=O)[O-] | 89.5
C1CCCNCCC1 | 29
Oc1ccc(Cl)cc1Br | 33
O=C(O)CCn1cncn1 | 177 to 179
N#Cc1cccc(CBr)c1 | 94
CC[C@H](C)[C@@H](N)C(=O)O | 285
O=C1COC(c2ccc(C(F)(F)F)cc2)CN1 (stereo unspecified) | 116
NNC(=O)CNc1nc(N)n[nH]1 | 225
CCOC1Oc2ccc(C)cc2C(=O)/C1=C/Nc1nc2ccc(Cl)cc2s1 (stereo unspecified) | 146 to 148
COC(=O)[C@@H]1C[C@@H](O)CN1C(=O)OC(C)(C)C | 91 to 96
CC=CCC=CCCC(=O)C1OC1C(N)=O (stereo unspecified) | 93.5

Second part, the compound after the results:

melting point [°C] | Compound
91 to 94 | Cc1ccc(C(=O)c2ccccc2N)cc1
190 | NC(=O)/C(=N\Nc1cccc(C(F)(F)F)c1)c1nc2ccccc2s1
295 | N#CC(c1ccc(Cl)cc1)c1c(Cl)cc(-n2ncc(=O)[nH]c2=O)cc1Cl (stereo unspecified)
125 | O=C(c1ccc(Cl)cc1)c1noc(-c2ccc(Br)cc2)c1S(=O)(=O)c1ccccc1
150 | Cc1c(O)cccc1[N+](=O)[O-]
325 | O=C(c1ccco1)c1nn2c(nc(=O)c3ccccc32)s1
320 | O=P1(O)Oc2ccc3ccccc3c2-c2c(ccc3ccccc23)O1
141 to 142 | O=C(O)/C=C/c1cccc2c(Br)ccc([N+](=O)[O-])c12
110 | CC(=O)N1C(=O)[C@@](O)(c2coc3ccccc23)c2ccccc21
219 | O=C(O)c1ccc(N/N=C(\C(=O)c2cccs2)C(=O)C(F)(F)F)cc1
86 | C=CN1C(=O)c2ccccc2C1=O
39 | Cc1cc([N+](=O)[O-])ccc1F
63 | OC(c1ccccc1)c1cccc(C(F)(F)F)c1 (stereo unspecified)
130 | O=C1c2ccccc2CC2CCc3ccccc3N12 (stereo unspecified)
240 | Cn1c(/C(C#N)=C/c2cccc(O)c2)nc2ccccc21
25 | COC(=O)CC(=O)c1ccccc1Cl
181 | c1ccc(CC(=NNc2ccccc2)/C(Cc2ccccc2)=N\Nc2ccccc2)cc1
215 to 218 | NC(=O)Nc1ccc(C2=NNC(=O)CC2)cc1
194 to 199 | O=C(O)c1cccc(-n2ccnc2)c1
230 | COc1cc(C=NNC(=O)CCn2c(C)nc3ccccc32)ccc1O
83 to 85 | O=C(Nc1cccnc1Cl)c1cccc(C(F)(F)F)c1
122 | COc1ccc(C#N)cc1Br
139 to 144 | O=C(C=CC=Cc1ccccc1)C=CC=Cc1ccccc1
26 | CCOC(=O)c1ccc(F)cc1
55 | OCc1cccc(-c2ccccc2)c1
181 | O=C(O)c1cccnc1Oc1ccccc1
247 to 257 | O=C1CCCc2c1nc(-c1ccccc1)n2O
-12 | CCCCC(c1ccccc1)c1ccccc1

melting point [°C] | Compound
212 | O=C1C(Cl)=C(NC(=O)C(Cl)Cl)C(=O)c2ccccc21
110 to 111 | Cc1ccc(C(=O)OC2CC(C#N)OC2OC(=O)c2ccc(C)cc2)cc1 (stereo unspecified)
78 | OC1OCC(OCc2ccccc2)C(OCc2ccccc2)C1OCc1ccccc1 (stereo unspecified)
168 | O=C1C(C(O)c2ccc(Cl)cc2)C(C(F)(F)F)=NN1c1ccccc1 (stereo unspecified)
178 to 179 | CSc1ncc(C(=O)O)n1Cc1ccccc1
115 | O=C(c1cccs1)c1coc(-c2ccc(Cl)cc2)c1S(=O)(=O)c1ccccc1
54 | O=S(=O)(CCCl)c1ccccc1
193 to 194 | Cc1nc(COc2ccc(C(N)=NO)cc2)cs1
124 | CCOC(=O)COc1ccc2c(=O)cc(-c3ccccc3)oc2c1
96 to 97 | Brc1ccc(Oc2c(Br)cccc2Br)c(Br)c1
89 | O=C(O)Cc1ccc(Cl)cc1C(F)(F)F
216 | CN(C)c1ccc2nc3ccc(=O)cc-3sc2c1
196 | CC(=O)NS(=O)(=O)c1ccc(NC(=O)c2ccccc2C(=O)O)cc1
298 to 300 | N#C/C(=C/c1ccc(Cl)cc1Cl)c1nc2ccccc2c(=O)[nH]1
113 to 114 | COc1ccc(OCC(N)=S)cc1
103 | O=C(NCCCl)c1ccccc1
60 to 61 | CCOc1ccc(N=C=S)cc1
152 | CC(C)(C)Oc1ccc(O)cc1
49.5 | COc1cccc2cccnc12
67 to 70 | O=Cc1ccccc1OC1CCOCC1
301 | Nc1nc2cc3nc(N)c(-c4ccccc4)cc3cc2cc1-c1ccccc1
87 | CN1CCC(CN2c3ccccc3Sc3ccccc32)C1 (stereo unspecified)
174 to 177 | Cc1ccc(N)c(C(=O)O)c1
101 to 103 | Cc1nc(-c2cccc(N)c2)cs1
45 to 46 | O=Cc1ccc(Oc2ccccn2)cc1
133 | CCOC(=O)c1cc2c(s1)Sc1[nH]c(C(=O)OCC)c(N)c1C2c1ccccc1 (stereo unspecified)
120 to 127 | O=C(C=P(c1ccccc1)(c1ccccc1)c1ccccc1)OCc1ccccc1
